Where “and” joins values, the source holds several entries; their conditions need not be identical. Equal values may be shown once. One block for each molecule: values may come before it.
How the values were obtained:
DRD3 wild-type = DRD3 wild-type (Homo sapiens, UniProt P35462); assay: Radioligand competition binding, [3H]-N-methylspiperone; conditions: for Ki: DRD3, [3H]-methylspiperone (0.8-1.0 nM), read-out: Ki; for pKi ± SEM: DRD3 wild-type
[1] = molecular target: DRD2 (D2 long receptor) wild-type (Homo sapiens, UniProt P14416); assay: Radioligand competition binding, [3H]-N-methylspiperone, HEK293T membranes; conditions: for Ki: DRD2, [3H]-methylspiperone (0.8-1.0 nM), read-out: Ki
DRD2 (D2 long receptor) [2] = molecular target: T1, DRD2 (D2 long receptor) (Homo sapiens, UniProt P14416); assay: β-arrestin2 recruitment (Tango), HTLA cells; assay type: cell-based; conditions: for Emax relative to quinpirole response / EC50: DRD2; for Emax relative to quinpirole response: Tango; for EC50: β-arrestin2 recruitment (Tango), read-out: EC50 ± SEM; for Response, Fig_S11c dose-response: individual replicates
DRD2 F1103.28A = DRD2 F1103.28A (Homo sapiens, UniProt P14416, F110A); assay type: binding; set-up: expressed in transfected cells; host or cells: HEK293T (ATCC CRL-11268); conditions: DRD2 F1103.28A; for Ki: read-out: Ki
DRD3 = DRD3 (Homo sapiens, UniProt P35462); assay: β-arrestin2 recruitment (Tango); assay type: cell-based; conditions: DRD3, Tango; for EC50: read-out: EC50 ± SEM
[3] = molecular target: T2, DRD4 (D4.4 variant) wild-type (Homo sapiens, UniProt P21917); assay: Radioligand competition binding, [3H]-N-methylspiperone; conditions: for Ki: DRD4, [3H]-methylspiperone (0.8-1.0 nM), read-out: Ki
T2 sequence (P21917 1-419): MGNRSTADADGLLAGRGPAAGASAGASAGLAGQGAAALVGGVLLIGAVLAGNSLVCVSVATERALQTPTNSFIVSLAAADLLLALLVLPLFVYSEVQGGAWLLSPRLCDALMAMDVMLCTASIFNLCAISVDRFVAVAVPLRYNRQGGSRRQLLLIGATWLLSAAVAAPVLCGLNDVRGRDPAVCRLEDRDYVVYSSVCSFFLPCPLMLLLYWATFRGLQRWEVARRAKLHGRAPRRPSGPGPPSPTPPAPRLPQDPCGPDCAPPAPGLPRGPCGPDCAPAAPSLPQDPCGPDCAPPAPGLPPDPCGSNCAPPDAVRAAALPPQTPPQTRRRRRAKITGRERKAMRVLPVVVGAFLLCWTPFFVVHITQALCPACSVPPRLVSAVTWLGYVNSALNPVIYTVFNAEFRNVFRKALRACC

DRD2 (D2 long receptor) [4] = molecular target: T1, DRD2 (D2 long receptor); assay: Gαi/o-mediated cAMP inhibition (GloSensor split-luciferase cAMP reporter), HEK293T; assay type: cell-based; conditions: for EC50: agonist, Gαi/o-mediated cAMP inhibition, read-out: EC50 ± SEM; for Response, Fig_S11b dose-response: individual replicates;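 as to all read-outs here: compounds applied 15 min at room temperature, then luciferin plus 400 nM isoproterenol to raise cAMP through endogenous β2-adrenergic receptors, luminescence read 15 min later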
DRD4 (D4.4 variant) [5] = molecular target: T3, DRD4 (D4.4 variant) (Homo sapiens, UniProt P21917); assay: β-arrestin2 recruitment (Tango); assay type: cell-based; conditions: DRD4; Tango; read-out: EC50 ± SEM
T3 sequence (P21917 1-419): T2 sequence (P21917 1-419)

DRD4 (D4.4 variant) [6] = molecular target: T3, DRD4 (D4.4 variant); assay: Gαi/o-mediated cAMP inhibition (GloSensor); assay type: cell-based; conditions: DRD4; agonist, cAMP inhibition; read-out: EC50 ± SEM

T1 sequence (P14416 whole entry): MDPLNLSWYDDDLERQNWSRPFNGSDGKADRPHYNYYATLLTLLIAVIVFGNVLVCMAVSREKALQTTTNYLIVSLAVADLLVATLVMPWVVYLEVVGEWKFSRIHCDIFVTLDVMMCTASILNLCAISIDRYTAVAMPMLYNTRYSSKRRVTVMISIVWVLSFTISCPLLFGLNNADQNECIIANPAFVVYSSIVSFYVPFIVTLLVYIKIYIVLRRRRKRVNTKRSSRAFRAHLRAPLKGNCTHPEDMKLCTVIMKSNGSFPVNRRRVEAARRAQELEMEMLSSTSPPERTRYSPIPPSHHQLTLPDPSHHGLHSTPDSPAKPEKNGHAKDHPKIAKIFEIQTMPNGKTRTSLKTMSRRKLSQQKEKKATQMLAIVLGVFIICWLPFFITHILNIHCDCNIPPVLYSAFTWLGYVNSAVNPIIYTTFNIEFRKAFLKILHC
Chain of DRD2 (D2 long receptor) wild-type (P14416 whole entry): as above
Chain of DRD2 F1103.28A (P14416 whole entry F110A): as the sequence (P14416 whole entry) above, with F110A counted along it
Chain of DRD3 (P35462 whole entry): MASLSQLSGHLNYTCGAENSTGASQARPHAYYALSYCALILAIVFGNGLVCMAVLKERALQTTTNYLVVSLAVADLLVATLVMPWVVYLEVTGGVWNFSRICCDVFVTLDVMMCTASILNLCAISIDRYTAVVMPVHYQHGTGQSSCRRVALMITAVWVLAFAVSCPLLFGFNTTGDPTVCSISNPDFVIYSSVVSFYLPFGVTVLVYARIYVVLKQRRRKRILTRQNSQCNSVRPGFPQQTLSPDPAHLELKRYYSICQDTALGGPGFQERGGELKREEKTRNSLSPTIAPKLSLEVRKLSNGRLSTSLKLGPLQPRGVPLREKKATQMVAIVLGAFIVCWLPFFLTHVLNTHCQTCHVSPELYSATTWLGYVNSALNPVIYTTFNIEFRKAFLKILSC
Chain of DRD3 wild-type (P35462 whole entry): as above

Ki (DRD3 wild-type): 5.88 µM
pKi ± SEM (DRD3 wild-type): 5.23±0.25
Ki [1]: > 10 µM
Emax relative to quinpirole response (DRD2 (D2 long receptor) [2]): 19.73%
EC50 (DRD2 (D2 long receptor) [2]): 5.37 ± 0.964 µM
pKi ± SEM (DRD2 F1103.28A): 5.28±0.02
Ki (DRD2 F1103.28A): 5.25 µM
EC50 (DRD3): > 10 µM
Ki [3]: > 10 µM
EC50 (DRD2 (D2 long receptor) [4]; DRD2): > 10 µM
EC50 (DRD4 (D4.4 variant) [5]): > 10 µM
EC50 (DRD4 (D4.4 variant) [6]): > 10 µM
Structure (SMILES): CCOc1cccc2cc(C(C)NCc3ccccc3)oc12.Cl (centres unmarked) [O4LE9]

Ki (DRD3 wild-type): 0.39 µM
pKi ± SEM (DRD3 wild-type): 6.41±0.20
Ki [1]: 2.51 µM
pKi ± SEM ([1]; DRD2 wild-type): 5.60±0.27
Emax relative to quinpirole response (DRD2 (D2 long receptor) [2]): 96.83%
EC50 (DRD2 (D2 long receptor) [2]): 0.048 ± 0.0174 µM
Response, Fig_S11c dose-response (DRD2 (D2 long receptor) [2]; Log[Drug] -6.52): 78.0067 and 72.6033 and 81.7269
pKi ± SEM (DRD2 F1103.28A): 6.17±0.24
Ki (DRD2 F1103.28A): 0.68 µM
Emax relative to quinpirole response (DRD3): 53.92%
EC50 (DRD3): 2.07 ± 0.524 µM
Ki [3]: 6.6 µM
pKi ± SEM ([3]; DRD4 wild-type): 5.18±0.16
EC50 (DRD2 (D2 long receptor) [4]; DRD2): 0.00051 ± 0.00022 µM
Emax relative to quinpirole response (DRD2 (D2 long receptor) [4]; DRD2, cAMP inhibition): 92.80%
Response, Fig_S11b dose-response (DRD2 (D2 long receptor) [4]; Log[Drug] -12): 10.388 and -0.6478 and -16.2541
EC50 (DRD4 (D4.4 variant) [5]): > 10 µM
EC50 (DRD4 (D4.4 variant) [6]): > 10 µM
Structure (SMILES): CCCOc1cccc2cc(C(C)NCC3(O)CCCCC3)oc12.Cl (centres unmarked) [O5LE6]
response, Fig_S11c dose-response source data (DRD2 (D2 long receptor) [2]; Fig_S11c, Log[Drug] -5, replicate values): 92.0049 and 94.8711 and 101.869 and 86.3956 and 96.7296 and 94.1831 and 124.768 and 128.356
Response, Fig_S11c dose-response (DRD2 (D2 long receptor) [2]; Log[Drug] -7): 59.3634 and 78.1496 and 92.3943 and 62.4498 and 64.4647 and 75.7752 and 66.3683 and 83.054 and 11.3874
Response, Fig_S11c dose-response (DRD2 (D2 long receptor) [2]; Log[Drug] -7.52): 39.0633 and 46.4823 and 48.2261 and 47.7888 and 46.5069 and 50.1562 and 52.6803 and 36.834 and 2.983
Response, Fig_S11c dose-response (DRD2 (D2 long receptor) [2]; Log[Drug] -8): 13.2042 and 18.1697 and 22.7864 and 24.8922 and 32.8443 and 29.0019 and 29.5472 and 40.4681 and 3.216
Response, Fig_S11c dose-response (DRD2 (D2 long receptor) [2]; Log[Drug] -8.52): 6.043 and 5.645 and 6.29 and 8.275 and 9.219 and 10.0453 and 7.5026 and 13.6733
Response, Fig_S11c dose-response (DRD2 (D2 long receptor) [2]; Log[Drug] -9): 3.483 and 3.9317 and 4.775 and 3.72 and 3.708 and 4.581 and 2.217 and 12.7509 and 0.7411
Response, Fig_S11c dose-response (DRD2 (D2 long receptor) [2]; Log[Drug] -9.52): 2.993 and 3.331 and 4.098 and 2.754 and 3.737 and 4.1942 and 7.991 and 10.1775 and 1.675
Response, Fig_S11c dose-response (DRD2 (D2 long receptor) [2]; Log[Drug] -10): 3.128 and 3.469 and 3.576 and 3.051 and 3 and 3.543 and 4.136 and 3.1859 and 0.7745
Response, Fig_S11c dose-response (DRD2 (D2 long receptor) [2]; Log[Drug] -10.52): 3.13 and 3.099 and 3.417 and 2.557 and 2.786 and 3.353 and 2.31 and 1.747 and 0.1927
Response, Fig_S11c dose-response (DRD2 (D2 long receptor) [2]; Log[Drug] -11): 2.735 and 2.569 and 3.311 and 2.422 and 2.816 and 3.208 and 1.747 and 3.739 and 0.4891
Response, Fig_S11c dose-response (DRD2 (D2 long receptor) [2]; Log[Drug] -11.52): 2.576 and 2.946 and 3.152 and 2.7257 and 2.6254 and 2.896 and 3.227 and 4.708 and 2.264
Response, Fig_S11c dose-response (DRD2 (D2 long receptor) [2]; Log[Drug] -12): 2.314 (2×) and 2.658 and 2.679 and 2.551 and 2.481 and 2.532 and 1.9407
Response, Fig_S11b dose-response (DRD2 (D2 long receptor) [4]; Log[Drug] -5): 93.7387 and 96.4518 and 83.3289 and 97.2506 and 100.948 and 91.5558 and 103.412 and 92.2091 and 101.183
Response, Fig_S11b dose-response (DRD2 (D2 long receptor) [4]; Log[Drug] -5.52): 82.1384 and 82.3875 and 75.0785 and 87.4334 and 93.0858 and 74.7688 and 89.9797 and 94.4943 and 85.5765
Response, Fig_S11b dose-response (DRD2 (D2 long receptor) [4]; Log[Drug] -6): 92.7696 and 95.5936 and 84.8792 and 92.7883 and 90.7908 and 90.8333 and 98.9533 and 107.927 and 83.4028
Response, Fig_S11b dose-response (DRD2 (D2 long receptor) [4]; Log[Drug] -6.52): 97.1163 and 91.7176 and 84.6854 and 100.523 and 99.588 and 84.586 and 94.4943 (2×) and 87.9175
Response, Fig_S11b dose-response (DRD2 (D2 long receptor) [4]; Log[Drug] -7): 88.7275 and 92.9358 and 71.1749 and 92.7033 and 88.1559 and 76.2138 and 94.4943 and 90.0354 and 94.6058
Response, Fig_S11b dose-response (DRD2 (D2 long receptor) [4]; Log[Drug] -7.52): 77.9025 and 80.4772 and 73.7773 and 81.6111 and 84.246 and 79.2737 and 92.3206 (2×) and 90.0912
Response, Fig_S11b dose-response (DRD2 (D2 long receptor) [4]; Log[Drug] -8): 77.3211 and 65.3055 and 54.0098 and 88.3259 and 67.3316 and 76.7238 and 92.3764 and 94.6058 and 90.1469
Response, Fig_S11b dose-response (DRD2 (D2 long receptor) [4]; Log[Drug] -8.52): 58.6056 and 55.6709 and 54.785 and 76.7663 and 68.819 and 71.6664 and 72.5342 and 65.79 and 68.0195
Response, Fig_S11b dose-response (DRD2 (D2 long receptor) [4]; Log[Drug] -9): 60.5713 and 46.8115 and 46.2578 and 72.3889 and 53.7745 and 57.9819 and 43.7184 and 46.0036 and 36.9186
Response, Fig_S11b dose-response (DRD2 (D2 long receptor) [4]; Log[Drug] -11): 6.418 and 5.781 and 25.106 and 20.5831 and 9.873 and -2.9186 and 1.972 and -15.9196 and 1.6931
Response, Fig_S11b dose-response (DRD2 (D2 long receptor) [4]; Log[Drug] -11.52): -0.171 and -1.0016 and 12.1684 and 15.5258 and 10.8339 and -7.0018 and -2.6544
